The source of these data is US20230219911A1, “BENZOTHIAZOLE DERIVATIVES AND USES THEREOF” (SHENYANG PHARMACEUTICAL UNIVERSITY, priority 2020, published 2023).

In this test the target is T1, sEH enzyme (human recombinant) (Homo sapiens, UniProt P34913).
T1 construct: purchased Cayman Chemical
T1 sequence (P34913 1-555): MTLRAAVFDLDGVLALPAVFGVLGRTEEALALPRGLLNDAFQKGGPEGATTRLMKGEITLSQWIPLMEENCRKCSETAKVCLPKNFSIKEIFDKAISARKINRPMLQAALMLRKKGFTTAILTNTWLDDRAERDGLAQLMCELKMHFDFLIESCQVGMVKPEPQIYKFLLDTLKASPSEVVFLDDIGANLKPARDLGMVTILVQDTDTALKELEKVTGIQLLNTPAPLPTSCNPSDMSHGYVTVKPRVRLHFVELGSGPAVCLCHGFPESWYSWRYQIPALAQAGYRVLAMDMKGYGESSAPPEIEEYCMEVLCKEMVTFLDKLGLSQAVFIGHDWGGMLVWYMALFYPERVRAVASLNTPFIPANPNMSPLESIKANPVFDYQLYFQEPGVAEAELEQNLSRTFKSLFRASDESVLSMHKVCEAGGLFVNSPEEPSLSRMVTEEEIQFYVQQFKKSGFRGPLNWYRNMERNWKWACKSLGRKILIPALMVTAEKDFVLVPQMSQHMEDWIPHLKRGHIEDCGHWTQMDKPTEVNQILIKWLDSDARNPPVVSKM
The experiment in a line: in vitro sEH enzyme activity by fluorescence analysis, single concentration inhibition. Format: biochemical. The following applies: compound 0.1 μM; human recombinant sEH; PHOME substrate; 37° C. 15 min; read-out: sEH % inhibition, @ 0.1 μM. As to the method: The benzothiazole skeleton compounds (concentration: 0.1 μM) according to the above formula I of the present invention were tested for the in vitro sEH enzyme activity by fluorescence analysis.
12 μL of sEH enzyme (human recombinant, 0.5 mg/mL, Cayman Chemical) was diluted with 588 μL of buffer (25 mM bis-Tris, pH 7.0). The fluorescent substrate was PHOME (cyano-(6-methoxy-naphthalen-2-yl)-methyl (3-phenyl-oxiranyl)-acetate) in DMSO (10 μM, Cayman Chemical). The compound to be tested was dissolved in 100% DMSO at a concentration of 4 μM. 185 μL of buffer (25 mM bis-Tris, pH 7.0), 5 μL of compound solution, and 5 μL of diluted sEH enzyme were added to the wells of a 96-well plate, and finally 5 μL of substrate solution was added to initiate the reaction. After incubating at 37° C. for 15 min, the fluorescence signal was measured with a microplate reader (excitation wavelength 330 nm, emission wavelength 465 nm).
Inhibition (%)=(F0−F1)/(F0)×100.
With `NC(=O)Nc1ccc2nc(N)sc2c1` [Example 2, 1-(2-aminobenzo[d]thiazol-6-yl)urea], the inhibition at 0.1 µM stood at 11.7%.
For `Nc1nc2ccc(NC(=O)Nc3ccccc3)cc2s1` [Example 3, 1-(2-aminobenzo[d]thiazol-6-yl)-3-phenylurea] the value was 32.9%.
For `Nc1nc2ccc(NC(=O)NCc3ccc(Cl)cc3)cc2s1` [Example 5, 1-(2-aminobenzo[d]thiazol-6-yl)-3-(4-chlorobenzyl)urea] the value was 47%; for `Nc1nc2ccc(NC(=O)NC3CCCCC3)cc2s1` [Example 6, 1-(2-aminobenzo[d]thiazol-6-yl)-3-cyclohexylurea], 2.15%.
For `Nc1nc2ccc(N(CCN3CCOCC3)C(=O)Nc3ccc([N+](=O)[O-])cc3)cc2s1` [Example 8, 1-(2-aminobenzo[d]thiazol-6-yl)-1-[2-(4-morpholinyl)ethyl]-3-(4-nitrophenyl)urea] the value was 19.2%; for `CC(=O)c1ccc(NC(=O)N(CCN2CCOCC2)c2ccc3nc(N)sc3c2)cc1` [Example 9, 1-(2-aminobenzo[d]thiazol-6-yl)-1-[2-(4-morpholinyl)ethyl]-3-(4-acetylphenyl)urea], 28.2%.
As for `CC(=O)Nc1ccc(NC(=O)N(CCN2CCOCC2)c2ccc3nc(N)sc3c2)cc1` [Example 10, 1-(2-aminobenzo[d]thiazol-6-yl)-1-[2-(4-morpholinyl)ethyl]-3-(4-acetamidophenyl)urea], the inhibition at 0.1 µM amounted to 2.16%.
For `Nc1nc2ccc(N(CCN3CCOCC3)C(=O)Nc3ccccn3)cc2s1` [Example 14, 1-(2-aminobenzo[d]thiazol-6-yl)-1-[2-(4-morpholinyl)ethyl]-3-(pyridin-2-yl)urea], the inhibition at 0.1 µM came to 16.2%.
For `Nc1nc2ccc(N(CCN3CCOCC3)C(=O)Nc3cccc4ccccc34)cc2s1` [Example 15, 1-(2-aminobenzo[d]thiazol-6-yl)-1-[2-(4-morpholinyl)ethyl]-3-(naphthalen-1-yl)urea] the value was 39%; for `Nc1nc2ccc(N(CCN3CCOCC3)C(=O)Nc3ccc(OC(F)(F)F)cc3)cc2s1` [Example 17, 1-(2-aminobenzo[d]thiazol-6-yl)-1-[2-(4-morpholinyl)ethyl]-3-(4-trifluoromethoxyphenyl)urea], 70.3%; for `CC(C)Oc1ccc(NC(=O)N(CCN2CCOCC2)c2ccc3nc(N)sc3c2)cc1` [Example 19, 1-(2-aminobenzo[d]thiazol-6-yl)-1-[2-(4-morpholinyl)ethyl]-3-(4-isopropoxyphenyl)urea], 76.6%.
For `CC(C)c1ccc(NC(=O)N(CCN2CCOCC2)c2ccc3nc(N)sc3c2)cc1` [Example 20, 1-(2-aminobenzo[d]thiazol-6-yl)-1-[2-(4-morpholinyl)ethyl]-3-(4-isopropylphenyl)urea] the value was 75.2%.
For `CCN(CC)CCN(C(=O)Nc1ccc(Cl)cc1)c1ccc2nc(N)sc2c1` [Example 21, 1-(2-aminobenzo[d]thiazol-6-yl)-1-[2-(N,N-diethylamino)ethyl]-3-(4-chlorophenyl)urea] the value was 86.2%.
Turning to `CC1CCN(CCN(C(=O)Nc2ccc(Cl)cc2)c2ccc3nc(N)sc3c2)CC1` [Example 22, 1-(2-aminobenzo[d]thiazol-6-yl)-1-[2-(4-methylpiperidin-1-yl)ethyl]-3-(4-chlorophenyl)urea], the inhibition at 0.1 µM stood at 67.5%.
Turning to `CN1CCN(CCN(C(=O)Nc2ccc(C(F)(F)F)cc2)c2ccc3nc(N)sc3c2)CC1` [Example 23, 1-(2-aminobenzo[d]thiazol-6-yl)-1-[2-(4-methylpiperazin-1-yl)ethyl]-3-(4-trifluoromethylphenyl)urea], the inhibition at 0.1 µM stood at 43.7%.
`Nc1nc2ccc(N(CCN3CCCC3)C(=O)Nc3ccc(Cl)cc3)cc2s1` [Example 24, 1-(2-aminobenzo[d]thiazol-6-yl)-1-[2-(pyrrolidin-1-yl)ethyl]-3-(4-chlorophenyl)urea]: the inhibition at 0.1 µM came out at 28.4%.
For `Nc1nc2ccc(N(CCCN3CCOCC3)C(=O)Nc3ccc(Cl)cc3)cc2s1` [Example 26, 1-(2-aminobenzo[d]thiazol-6-yl)-1-[3-(4-morpholinyl)propyl]-3-(4-chlorophenyl)urea] the value was 36.5%; for `CCOC(=O)Nc1nc2ccc(N(CCN3CCOCC3)C(=O)Nc3ccc(Cl)cc3)cc2s1` [Example 28, 1-[2-(2-ethoxyformamido)benzo[d]thiazol-6-yl]-1-[2-(4-morpholinyl)ethyl]-3-(4-chlorophenyl)urea], 90.5%; for `CC(C)(C)OC(=O)Nc1nc2ccc(N(CCN3CCOCC3)C(=O)Cc3ccc(Cl)cc3)cc2s1` [Example 31, tert-butyl (6-{2-(4-chlorophenyl)-N-[2-(4-morpholinyl)ethyl]acetamido}benzo[d]thiazol-2-yl)carbamate], 70.9%.
For `O=C(Nc1nc2ccc(N(CCN3CCOCC3)C(=O)Nc3ccc(Cl)cc3)cc2s1)c1ccccc1` [Example 32, 1-(2-phenylformamidobenzo[d]thiazol-6-yl)-1-[2-(4-morpholinyl)ethyl]-3-(4-chlorophenyl)urea] the value was 77.6%; for `O=C(CCc1ccccc1)Nc1nc2ccc(N(CCN3CCOCC3)C(=O)Nc3ccc(Cl)cc3)cc2s1` [Example 33], 15.8%; for `O=C(Cc1ccccc1)Nc1nc2ccc(N(CCN3CCOCC3)C(=O)Nc3ccc(C(F)(F)F)cc3)cc2s1` [Example 34, 1-(2-phenylacetamidobenzo[d]thiazol-6-yl)-1-[2-(4-morpholinyl)ethyl]-3-(4-trifluoromethylphenyl)urea], 32.5%.
For `Cc1ccc(NC(=O)N(CCN2CCOCC2)c2ccc3nc(N)oc3c2)cc1` [Example 35, 1-(2-aminobenzo[d]oxazol-6-yl)-1-[2-(4-morpholinyl)ethyl]-3-(4-methylphenyl)urea] the value was 10.3%.
Consider `CC(=O)Nc1nc2ccc(N(CCN3CCOCC3)C(=O)Nc3ccc(C)cc3)cc2o1` [Example 36, 1-(2-acetamidobenzo[d]oxazol-6-yl)-1-[2-(4-morpholinyl)ethyl]-3-(4-methylphenyl)urea], for which the inhibition at 0.1 µM came to 45.6%.
For `Cc1ccc(NC(=O)N(CCN2CCOCC2)c2ccc3nc(NC(=O)Cc4ccccc4)oc3c2)cc1` [Example 37, 1-(2-phenylacetamidobenzo[d]oxazol-6-yl)-1-[2-(4-morpholinyl)ethyl]-3-(4-methylphenyl)urea] the value was 66.8%; for `Nc1nc2ccc(N(CCN3CCOCC3)C(=O)Nc3ccc(F)cc3)nc2s1` [Example 38, 1-(2-aminothiazo[5,4-b]pyridin-5-yl)-3-(4-fluorophenyl)-1-[2-(4-morpholinyl)ethyl]urea], 57.2%.
For `CCNc1nc2ccc(N(CCN3CCOCC3)C(=O)Nc3ccc(F)cc3)nc2s1` [Example 39, 1-[2-(ethylamino)thiazo[5,4-b]pyridin-5-yl]-1-[2-(4-morpholinyl)ethyl]-3-(4-fluorophenyl)urea] the value was 41.5%; for `Nc1nc2cnc(N(CCN3CCOCC3)C(=O)Nc3ccc(OC(F)(F)F)cc3)cc2s1` [Example 41, 1-(2-aminothiazo[4,5-c]pyridin-6-yl)-1-[2-(4-morpholinyl)ethyl]-3-(4-trifluoromethoxyphenyl)urea], 34.7%.
